{"source": "ChEMBL document CHEMBL4342445", "about": "“Structurally Diverse Meroterpenoids from a Marine-Derived Aspergillus sp. Fungus” (J Nat Prod, 2020)", "note": "The source made the active and inactive calls. The calls are words filed in the database; no cut-off is given here.", "data": [{"molecular_target": "Acetylcholinesterase (Homo sapiens) (UniProt P22303)", "sequence (P22303 whole entry)": "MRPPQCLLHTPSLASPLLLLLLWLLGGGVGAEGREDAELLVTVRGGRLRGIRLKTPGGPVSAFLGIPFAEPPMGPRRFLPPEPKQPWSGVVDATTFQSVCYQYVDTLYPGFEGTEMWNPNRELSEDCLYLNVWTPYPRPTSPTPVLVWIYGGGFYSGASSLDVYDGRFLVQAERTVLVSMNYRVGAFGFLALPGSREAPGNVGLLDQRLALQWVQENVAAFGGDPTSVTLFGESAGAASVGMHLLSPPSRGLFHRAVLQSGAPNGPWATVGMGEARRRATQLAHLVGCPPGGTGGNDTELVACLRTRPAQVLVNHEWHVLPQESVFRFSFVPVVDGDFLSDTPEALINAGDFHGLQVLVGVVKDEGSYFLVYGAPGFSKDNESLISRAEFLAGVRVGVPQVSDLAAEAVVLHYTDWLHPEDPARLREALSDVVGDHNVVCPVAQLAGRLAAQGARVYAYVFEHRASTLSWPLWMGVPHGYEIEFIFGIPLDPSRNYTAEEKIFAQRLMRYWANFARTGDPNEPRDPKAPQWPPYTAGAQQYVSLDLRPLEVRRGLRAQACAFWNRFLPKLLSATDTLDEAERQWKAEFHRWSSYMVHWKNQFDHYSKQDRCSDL", "experiment": "Inhibition of human erythrocytes AChE at 50 uM using acetylthiocholine iodide as substrate preincubated for 20 mins followed by substrate addition and measured every 30 secs for 1 hr by spectrophotometry based Ellman's method", "values": [{"smiles": "C=C1[C@@]2(C)C[C@H]3[C@]4(C)C=CC(=O)OC(C)(C)[C@H]4CC[C@]3(C)[C@]1(C(=O)OC)C(=O)[C@@](C)(O)C2=O", "inhibition": "inactive"}, {"smiles": "C=C1[C@@]23C(=O)O[C@H](C)[C@]24O[C@@]2(C(=C)[C@]5(C=CC(=O)OC5(C)C)CC[C@]32C)[C@H](OC(C)=O)[C@@]1(C)OC4=O", "inhibition": "inactive"}, {"smiles": "C=C1[C@@]2(C)CC3=C(C)[C@]4(C=CC(=O)OC4(C)C)CC[C@]3(C)[C@@]13C(=O)O[C@@H](C)[C@@]3(O)C2=O", "inhibition": "inactive"}, {"smiles": "C=C1[C@@]23C(=O)O[C@H](C)[C@@]2(O)C(=O)O[C@]1(C)[C@@H](OC(C)=O)C1=C(C)[C@]2(C=CC(=O)OC2(C)C)CC[C@@]13C", "inhibition": "inactive"}, {"smiles": "C=C1[C@@]23C(=O)O[C@H](C)[C@]24O[C@@]2(C(=C)[C@]5(CCC(=O)OC5(C)C)C[C@@H](OC(=O)/C(C)=C/C)[C@]32C)[C@H](OC(C)=O)[C@@]1(C)OC4=O", "inhibition": "inactive"}, {"smiles": "C=C1[C@@]2(C)C[C@]3(C)[C@](C)(CC[C@@H]4C(C)(C)OC(=O)C=C[C@]43C)[C@@]13C(=O)O[C@H](C)[C@@]3(O)C2=O", "inhibition": "inactive"}, {"smiles": "C=C1[C@@]2(C)CC3=C(C)[C@]4(C=CC(=O)OC4(C)C)CC[C@]3(C)[C@@]13C(=O)O[C@H](C)[C@@]3(O)C2=O", "inhibition": "inactive"}, {"smiles": "C=C1[C@]2(C)C(=O)[C@]3(O)[C@H](C)OC(=O)[C@]13[C@@]1(C)CC[C@@]3(C=CC(=O)OC3(C)C)C(C)=C1[C@@H]2OC(C)=O", "inhibition": "inactive"}, {"smiles": "C=C1[C@@]2(C(=O)OC)C(=O)[C@H](O)[C@]1(C)CC1=C(C)[C@]3(C=CC(=O)OC3(C)C)CC[C@@]12C", "inhibition": "inactive"}]}]}
